“And” between values parts separate entries of the source, which are not always exact repeats. Equal entries are not always repeated. Results filed as inconclusive are left out. Bridge positions count the residues as written; N and C are the ends. Square brackets hold non-standard residues; d marks the D form. Peptide text beside a SMILES is read from it. I, II: the chains in the order shown. * marks the point of attachment. Quinoxaline2carbonyl = O=C(c1cnc2ccccc2n1)*; NMeV = CN[CH](C(=O)O)C(C)C; NMeC = CN[CH](CS)C(=O)O
Tested on: nude mice, LX-1 lung xenograft intrarenal, tumor weight T/C
Assay: NCI In Vivo Anticancer Drug Screen. Data for tumor model Human Lung LX-1 Xenograft (intrarenal inoculation) in NU/NU Swiss (nude) mice
Conditions: endpoint: mean tumor weight change, higher = larger tumour
Procedure, shortened: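 Antitumor effect is expressed as a ratio: the mean tumor measurement of the drug-treated group relative to that of the vehicle-dosed control group.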

[1] = dose: 150.0 mg/kg/injection, schedule: Q04DX003 (sc), vehicle: saline
[2] = dose: 300.0 mg/kg/injection, schedule: Q04DX003 (sc), vehicle: saline
[3] = dose: 300.0 mg/kg/injection, schedule: Q04DX003 (sc), vehicle: saline with Tween-80
[4] = dose: 600.0 mg/kg/injection, schedule: Q04DX003 (sc), vehicle: saline with Tween-80
[5] = dose: 1200.0 mg/kg/injection, schedule: Q04DX003 (sc), vehicle: saline with Tween-80
[6] = dose: 25.0 mg/kg/injection, schedule: Q01DX010 (sc), vehicle: saline with Tween-80
[7] = dose: 50.0 mg/kg/injection, schedule: Q01DX010 (sc), vehicle: saline with Tween-80
[8] = dose: 400.0 mg/kg/injection, schedule: Q04DX003 (sc), vehicle: saline with Tween-80
[9] = dose: 800.0 mg/kg/injection, schedule: Q04DX003 (sc), vehicle: saline with Tween-80
[10] = dose: 100.0 mg/kg/injection, schedule: Q01DX010 (sc), vehicle: saline with Tween-80
[11] = dose: 400.0 mg/kg/injection, schedule: Q01DX010 (sc), vehicle: saline with Tween-80
[12] = dose: 150.0 mg/kg/injection, schedule: Q04DX003 (sc), vehicle: suspension in saline
[13] = dose: 300.0 mg/kg/injection, schedule: Q04DX003 (sc), vehicle: suspension in saline
[14] = dose: 600.0 mg/kg/injection, schedule: Q04DX003 (sc), vehicle: suspension in saline
[15] = dose: 100.0 mg/kg/injection, schedule: Q04DX003 (sc), vehicle: saline with Tween-80
[16] = dose: 200.0 mg/kg/injection, schedule: Q04DX003 (sc), vehicle: saline with Tween-80
[17] = dose: 50.0 mg/kg/injection, schedule: Q04DX003 (sc), vehicle: saline with Tween-80

Structure (SMILES): CCC/C=C/C=C/C(=O)OC1/C(=C/C(=O)OC)CC2CC(C(C)O)OC(=O)CC(O)CC3CC(OC(C)=O)C(C)(C)C(O)(CC4C/C(=C/C(=O)OC)CC(/C=C/C(C)(C)C1(O)O2)O4)O3 (configuration not stated)
- T/C (dose: 0.25 mg/kg/injection, schedule: Q04DX003 (sc), vehicle: saline + alcohol): 112 % of control
- T/C (dose: 0.5 mg/kg/injection, schedule: Q04DX003 (sc), vehicle: saline + alcohol): 96 % of control
- T/C (dose: 1.0 mg/kg/injection, schedule: Q04DX003 (ip), vehicle: saline + alcohol): 96 % of control
- T/C (dose: 1.0 mg/kg/injection, schedule: Q04DX003 (sc), vehicle: saline + alcohol): 59 % of control
- T/C (dose: 2.0 mg/kg/injection, schedule: Q04DX003 (ip), vehicle: saline + alcohol): 119 % of control
- T/C (dose: 2.0 mg/kg/injection, schedule: Q04DX003 (sc), vehicle: saline + alcohol): 27 % of control and 40 % of control
- T/C (dose: 4.0 mg/kg/injection, schedule: Q04DX003 (ip), vehicle: saline + alcohol): 76 % of control
- T/C (dose: 8.0 mg/kg/injection, schedule: Q04DX003 (ip), vehicle: saline + alcohol): 81 % of control
- T/C (dose: 8.0 mg/kg/injection, schedule: Q04DX003 (sc), vehicle: saline + alcohol): 16 % of control
- T/C (dose: 10.0 mg/kg/injection, schedule: Q04DX003 (ip), vehicle: saline + alcohol): 93 % of control

Structure (SMILES): COC(=O)c1ccoc1
- T/C [1]: 107 % of control

Structure (SMILES): CN(N=O)C(=O)N[C@@H](C=O)[C@@H](O)[C@H](O)[C@H](O)CO
- T/C (dose: 75.0 mg/kg/injection, schedule: Q04DX003 (sc), vehicle: other): 32 % of control
- T/C (dose: 75.0 mg/kg/injection, schedule: Q04DX003 (sc), vehicle: saline): 39 % of control
- T/C (dose: 150.0 mg/kg/injection, schedule: Q04DX003 (sc), vehicle: other): 10 % of control
- T/C [1]: 22 % of control
- T/C [2]: -56 % of control

Structure (SMILES): CCCCCCCCSC1=C(Cl)C(=O)C(OC)=C(OC)C1=O
- T/C (dose: 18.0 mg/kg/injection, schedule: Q04DX003 (sc), vehicle: saline with Tween-80): 82 % of control
- T/C (dose: 36.0 mg/kg/injection, schedule: Q04DX003 (sc), vehicle: saline with Tween-80): 81 % of control
- T/C (dose: 144.0 mg/kg/injection, schedule: Q04DX003 (sc), vehicle: saline with Tween-80): 57 % of control

Structure (SMILES): CCOC(=O)C(C)(C)Oc1ccc(Cl)cc1
- T/C [3]: 73 % of control
- T/C [4]: 97 % of control
- T/C [5]: 81 % of control

Structure (SMILES): Oc1ccccc1C=NCCC[N-]CCCN=Cc1ccccc1O.[Co]
- T/C (dose: 50.0 mg/kg/injection, schedule: Q01DX010 (sc), vehicle: suspension in saline): 124 % of control
- T/C (dose: 100.0 mg/kg/injection, schedule: Q01DX010 (sc), vehicle: suspension in saline): 79 % of control

Structure (SMILES): CCOC(=O)C(CC(C)C)NC(=O)C(Cc1ccc(N(CCCl)CCCl)cc1)NC(C)=O (configuration not stated)
- T/C (dose: 12.5 mg/kg/injection, schedule: Q01DX010 (sc), vehicle: saline with Tween-80): 51 % of control
- T/C [6]: 37 % of control
- T/C [7]: 28 % of control

Structure (SMILES): CC(=O)Oc1ccc[nH]c1=O
- T/C [8]: 87 % of control
- T/C [9]: 91 % of control

Structure (SMILES): C[C@H](CCC[C@H](C)OS(=O)(=O)c1ccccc1)OS(=O)(=O)c1ccccc1
- T/C (dose: 150.0 mg/kg/injection, schedule: Q04DX003 (sc), vehicle: saline with Tween-80): 87 % of control
- T/C [3]: 45 % of control

Structure (SMILES): c1ccc2sc(SSN3CC4CCC(CC4)C3)nc2c1
- T/C [7]: 81 % of control
- T/C [10]: 76 % of control
- T/C (dose: 200.0 mg/kg/injection, schedule: Q01DX010 (sc), vehicle: saline with Tween-80): 48 % of control
- T/C [11]: 50 % of control

Structure (SMILES): O=c1[nH]cnc2[nH]ncc12
- T/C [12]: 88 % of control
- T/C [13]: 100 % of control
- T/C [14]: 61 % of control

Structure (SMILES): COC(=O)NC1C(C)OC(OC2C/C=C(/C)C3C=CC4C(OC5CC(OC6CCC(OC7CC(O)C(OC8CCC(O)C(C)O8)C(C)O7)C(C)O6)C(OC(C)=O)C(C)O5)C(C)CC(C)C4C3(C)/C(O)=C3/C(=O)OC4(CC(C=O)=CC(O)C4/C=C\2C)C3=O)CC1(C)[N+](=O)[O-] (configuration not stated)
- T/C (dose: 12.5 mg/kg/injection, schedule: Q04DX003 (sc), vehicle: other): 63 % of control
- T/C (dose: 25.0 mg/kg/injection, schedule: Q04DX003 (sc), vehicle: other): 75 % of control
- T/C (dose: 50.0 mg/kg/injection, schedule: Q04DX003 (sc), vehicle: other): 100 % of control
- T/C (dose: 100.0 mg/kg/injection, schedule: Q04DX003 (sc), vehicle: other): 93 % of control

Structure (SMILES): O=C(O)CCCc1ccc(N(CCCl)CCCl)cc1
- T/C (dose: 16.0 mg/kg/injection, schedule: Q01DX010 (sc), vehicle: saline with Tween-80): 30 % of control

Structure (SMILES): CCc1ccc(C2=C(O)C(=O)C(c3ccc(CC)cc3)=C(O)C2=O)cc1
- T/C [15]: 83 % of control
- T/C [16]: 100 % of control
- T/C [8]: 64 % of control
- T/C [9]: 56 % of control

Structure (SMILES): CO[C@@H]1[C@H](O)CC[C@]2(CO2)[C@H]1[C@@]1(C)O[C@@H]1CC=C(C)C
- T/C [12]: 79 % of control
- T/C [13]: 90 % of control
- T/C [14]: 63 % of control
- T/C (dose: 1200.0 mg/kg/injection, schedule: Q04DX003 (sc), vehicle: suspension in saline): 63 % of control

Structure (SMILES): O=C(O)/C=C/C(=O)Nc1ccc(Cl)c(Cl)c1
- T/C (dose: 100.0 mg/kg/injection, schedule: Q04DX003 (sc), vehicle: Klucel (hydroxypropylcellulose) (HPC)): 95 % of control
- T/C (dose: 200.0 mg/kg/injection, schedule: Q04DX003 (sc), vehicle: Klucel (hydroxypropylcellulose) (HPC)): 91 % of control

Structure (SMILES): Oc1ccc(SCc2ccc(NCc3ccccc3)cc2)cc1
- T/C [6]: 97 % of control
- T/C [7]: 44 % of control
- T/C [10]: 53 % of control
- T/C [11]: 190 % of control
- T/C (dose: 800.0 mg/kg/injection, schedule: Q01DX010 (sc), vehicle: saline with Tween-80): 54 % of control

Structure (SMILES): C=C(C)C(=NC(C)(C)C)Nc1ccccc1
- T/C [17]: 62 % of control
- T/C [16]: 34 % of control

Structure (SMILES): NC(=S)N/N=C/c1ccc(O)cn1
- T/C [17]: 102 % of control
- T/C [15]: 94 % of control
- T/C [16]: 96 % of control
- T/C [8]: 64 % of control

Structure (SMILES): O=C(O)C1Cc2nc[nH]c2CN1CO (configuration not stated)
- T/C [3]: 74 % of control
- T/C [4]: 85 % of control
- T/C [5]: 41 % of control
- T/C (dose: 2400.0 mg/kg/injection, schedule: Q04DX003 (sc), vehicle: saline with Tween-80): 87 % of control

Structure (SMILES): O=C(Nc1cccc(Cl)c1)ON1C(=O)C2C(C1=O)C1(Cl)C(Cl)C(Cl)C2(Cl)C1(Cl)Cl (configuration not stated)
- T/C [3]: 81 % of control
- T/C [4]: 85 % of control
- T/C [5]: 83 % of control

Structure (SMILES): CC1NC(=O)C(NC(=O)c2cnc3ccccc3n2)COC(=O)C(C(C)C)N(C)C(=O)C2CSSCC(C(=O)N(C)C(C(C)C)C(=O)OCC(NC(=O)c3cnc4ccccc4n3)C(=O)NC(C)C(=O)N2C)N(C)C1=O (configuration not stated) (I: Quinoxaline2carbonyl-SA[NMeC][NMeV] / II: Quinoxaline2carbonyl-SA[NMeC][NMeV]; ester I:1-II:C, I:C-II:1; disulfide I:3-II:3; configuration not given here)
- T/C (dose: 100.0 micrograms/kg/injection, schedule: Q04DX003 (sc), vehicle: Klucel (hydroxypropylcellulose) (HPC)): 104 % of control
- T/C (dose: 200.0 micrograms/kg/injection, schedule: Q04DX003 (sc), vehicle: Klucel (hydroxypropylcellulose) (HPC)): 83 % of control
- T/C (dose: 400.0 micrograms/kg/injection, schedule: Q04DX003 (sc), vehicle: Klucel (hydroxypropylcellulose) (HPC)): 54 % of control

Structure (SMILES): CC(=O)Oc1c(C)[nH]ccc1=O
- T/C [13]: 73 % of control
- T/C [14]: 65 % of control

Structure (SMILES): CN(C)CC(Cl)CCl (configuration not stated)
- T/C [2]: 49 % of control

Structure (SMILES): CC(=O)C1(O)Cc2c(O)c3c(c(O)c2C(OC2CC(N)C(O)C(C)O2)C1)C(=O)c1ccccc1C3=O (configuration not stated)
- T/C (dose: 0.5 mg/kg/injection, schedule: Q04DX003 (sc), vehicle: water): 120 % of control

Structure (SMILES): CCN1/C(=C/C=C/C=C\C=C\c2sc3ccc4ccccc4c3[n+]2CC)Sc2ccc3ccccc3c21
- T/C (dose: 6.25 mg/kg/injection, schedule: Q04DX003 (sc), vehicle: saline with Tween-80): 156 % of control
- T/C (dose: 12.5 mg/kg/injection, schedule: Q04DX003 (sc), vehicle: saline with Tween-80): 116 % of control
- T/C (dose: 25.0 mg/kg/injection, schedule: Q04DX003 (sc), vehicle: saline with Tween-80): 78 % of control
- T/C [17]: 122 % of control

Source: PubChem BioAssay AID264 (DTP/NCI, 2004)
